Laboratory results published in ChEMBL document CHEMBL5046315, “CRCM5484: A BET-BDII Selective Compound with Differential Anti-leukemic Drug Modulation” (J Med Chem, 2022).
pEC50, pIC50, pKd: −log10 of the molar value. Active and inactive are the calls of the source.

Experiments:
[1] = biological target: Bromodomain-containing protein 2 (Homo sapiens, UniProt P25440); assay: Inhibition of BRD2-BD2 (unknown origin) incubated for 6 hrs by HTRF method
[2] = biological target: Bromodomain-containing protein 3 (Homo sapiens, UniProt Q15059); assay: Inhibition of BRD3-BD2 (unknown origin) assessed as dissociation constant by ITC method
[3] = biological target: Chromatin remodeling regulator CECR2 (Homo sapiens) (UniProt Q9BXF3); assay: Binding affinity to partial length human CECR2 (P423 to D543 residues) expressed in bacterial system at 1 uM by BROMOscan method relative to control
[4] = tested on: CCRF-CEM; assay: Cytotoxicity against human CCRF-CEM cells assessed as reduction in cell viability incubated for 72 hrs; type: functional, cell-based
[5] = tested on: Acute myeloid leukemic cell; assay: Potentiation of birinapant-induced antileukemic activity against patient derived mouse xenografted acute myeloid leukemic cells assessed as cell viability in absence of bone-marrow derived stromal cell-conditioned medium measured after 72 to 144 hrs by cell-titre glo luminescent assay; type: functional, cell-based; conditions: Homo sapiens, dose microM <=10, time lower […], time upper 144.0 hrs
[6] = tested on: CCRF-CEM; assay: Potentiation of arsenic-induced antileukemic activity against human CCRF-CEM cells at 4.3 uM in presence of bone-marrow derived stromal cell-conditioned medium; type: functional, cell-based
[7] = tested on: CCRF-CEM; assay: Potentiation of AT9283-induced antileukemic activity against human CCRF-CEM cells at 4.3 uM in presence of bone-marrow derived stromal cell-conditioned medium; type: functional, cell-based
[8] = tested on: CCRF-CEM; assay: Potentiation of carfilzomib-induced antileukemic activity against human CCRF-CEM cells at 4.3 uM in presence of bone-marrow derived stromal cell-conditioned medium; type: functional, cell-based
[9] = tested on: CCRF-CEM; assay: Potentiation of JQ1-induced antileukemic activity against human CCRF-CEM cells at 4.3 uM in presence of bone-marrow derived stromal cell-conditioned medium; type: functional, cell-based
[10] = tested on: CCRF-CEM; assay: Potentiation of seliciclib-induced antileukemic activity against human CCRF-CEM cells at 4.3 uM in presence of bone-marrow derived stromal cell-conditioned medium; type: functional, cell-based
[11] = tested on: CCRF-CEM; assay: Potentiation of SGI-110-induced antileukemic activity against human CCRF-CEM cells at 4.3 uM in presence of bone-marrow derived stromal cell-conditioned medium; type: functional, cell-based
[12] = tested on: CCRF-CEM; assay: Potentiation of volasertib-induced antileukemic activity against human CCRF-CEM cells at 4.3 uM in presence of bone-marrow derived stromal cell-conditioned medium; type: functional, cell-based
[13] = tested on: U-937; assay: Potentiation of AGI-5198-induced antileukemic activity against human U-937 cells at 4.3 uM in presence of bone-marrow derived stromal cell-conditioned medium; type: functional, cell-based
[14] = tested on: U-937; assay: Potentiation of azacitidine-induced antileukemic activity against human U-937 at 4.3 uM in presence of bone-marrow derived stromal cell-conditioned medium; type: functional, cell-based
[15] = tested on: U-937; assay: Potentiation of birinapant-induced antileukemic activity against human U-937 cells at 4.3 uM in presence of bone-marrow derived stromal cell-conditioned medium; type: functional, cell-based
[16] = tested on: U-937; assay: Potentiation of bosutinib-induced antileukemic activity against human U-937 cells at 4.3 uM in presence of bone-marrow derived stromal cell-conditioned medium; type: functional, cell-based
[17] = tested on: U-937; assay: Potentiation of EPZ5676-induced antileukemic activity against human U-937 cells at 4.3 uM in presence of bone-marrow derived stromal cell-conditioned medium; type: functional, cell-based
[18] = tested on: U-937; assay: Potentiation of gefitinib-induced antileukemic activity against human U-937 cells at 4.3 uM in presence of bone-marrow derived stromal cell-conditioned medium; type: functional, cell-based
[19] = tested on: U-937; assay: Potentiation of idasanutlin-induced antileukemic activity against human U-937 cells at 4.3 uM in presence of bone-marrow derived stromal cell-conditioned medium; type: functional, cell-based
[20] = tested on: U-937; assay: Potentiation of lapatinib-induced antileukemic activity against human U-937 cells at 4.3 uM in presence of bone-marrow derived stromal cell-conditioned medium; type: functional, cell-based
[21] = tested on: U-937; assay: Potentiation of OTX015-induced antileukemic activity against human U-937 cells at 4.3 uM in presence of bone-marrow derived stromal cell-conditioned medium; type: functional, cell-based
[22] = tested on: U-937; assay: Potentiation of seliciclib-induced antileukemic activity against human U-937 cells at 4.3 uM in presence of bone-marrow derived stromal cell-conditioned medium; type: functional, cell-based
[23] = tested on: U-937; assay: Potentiation of selinexor-induced antileukemic activity against human U-937 cells at 4.3 uM in presence of bone-marrow derived stromal cell-conditioned medium; type: functional, cell-based
[24] = tested on: U-937; assay: Potentiation of SGI-1027-induced antileukemic activity against human U-937 cells at 4.3 uM in presence of bone-marrow derived stromal cell-conditioned medium; type: functional, cell-based
[25] = tested on: U-937; assay: Potentiation of SGI-110-induced antileukemic activity against human U-937 cells at 4.3 uM in presence of bone-marrow derived stromal cell-conditioned medium; type: functional, cell-based
[26] = tested on: U-937; assay: Potentiation of sorafenib-induced antileukemic activity against human U-937 cells at 4.3 uM in presence of bone-marrow derived stromal cell-conditioned medium; type: functional, cell-based
[27] = tested on: U-937; assay: Potentiation of sunitinib-induced antileukemic activity against human U-937 cells at 4.3 uM in presence of bone-marrow derived stromal cell-conditioned medium; type: functional, cell-based
[28] = tested on: U-937; assay: Potentiation of trametinib-induced antileukemic activity against human U-937 cells at 4.3 uM in presence of bone-marrow derived stromal cell-conditioned medium; type: functional, cell-based
[29] = tested on: U-937; assay: Potentiation of vermurafenib-induced antileukemic activity against human U-937 cells at 4.3 uM in presence of bone-marrow derived stromal cell-conditioned medium; type: functional, cell-based
[30] = tested on: MOLM-14; assay: Potentiation of AC-4-130-induced antileukemic activity against human MOLM-14 cells at 4.3 uM in presence of bone-marrow derived stromal cell-conditioned medium; type: functional, cell-based
[31] = tested on: MOLM-14; assay: Potentiation of BKM120-induced antileukemic activity against human MOLM-14 cells at 4.3 uM in presence of bone-marrow derived stromal cell-conditioned medium; type: functional, cell-based
[32] = tested on: MOLM-14; assay: Potentiation of bosutinib-induced antileukemic activity against human MOLM-14 cells at 4.3 uM in presence of bone-marrow derived stromal cell-conditioned medium; type: functional, cell-based
[33] = tested on: MOLM-14; assay: Potentiation of dasatinib-induced antileukemic activity against human MOLM-14 cells at 4.3 uM in presence of bone-marrow derived stromal cell-conditioned medium; type: functional, cell-based
[34] = tested on: MOLM-14; assay: Potentiation of erlotinib-induced antileukemic activity against human MOLM-14 cells at 4.3 uM in presence of bone-marrow derived stromal cell-conditioned medium; type: functional, cell-based
[35] = tested on: MOLM-14; assay: Potentiation of GSK126-induced antileukemic activity against human MOLM-14 cells at 4.3 uM in presence of bone-marrow derived stromal cell-conditioned medium; type: functional, cell-based
[36] = tested on: MOLM-14; assay: Potentiation of hydroxychloroquine-induced antileukemic activity against human MOLM-14 cells at 4.3 uM in presence of bone-marrow derived stromal cell-conditioned medium; type: functional, cell-based
[37] = tested on: MOLM-14; assay: Potentiation of JQ1-induced antileukemic activity against human MOLM-14 cells at 4.3 uM in presence of bone-marrow derived stromal cell-conditioned medium; type: functional, cell-based
[38] = tested on: MOLM-14; assay: Potentiation of metformin -induced antileukemic activity against human MOLM-14 cells at 4.3 uM in presence of bone-marrow derived stromal cell-conditioned medium; type: functional, cell-based
[39] = tested on: MOLM-14; assay: Potentiation of olaparid-induced antileukemic activity against human MOLM-14 cells at 4.3 uM in presence of bone-marrow derived stromal cell-conditioned medium; type: functional, cell-based
[40] = tested on: MOLM-14; assay: Potentiation of ponatinib-induced antileukemic activity against human MOLM-14 cells at 4.3 uM in presence of bone-marrow derived stromal cell-conditioned medium; type: functional, cell-based

Chain of Bromodomain-containing protein 2 (P25440 whole entry): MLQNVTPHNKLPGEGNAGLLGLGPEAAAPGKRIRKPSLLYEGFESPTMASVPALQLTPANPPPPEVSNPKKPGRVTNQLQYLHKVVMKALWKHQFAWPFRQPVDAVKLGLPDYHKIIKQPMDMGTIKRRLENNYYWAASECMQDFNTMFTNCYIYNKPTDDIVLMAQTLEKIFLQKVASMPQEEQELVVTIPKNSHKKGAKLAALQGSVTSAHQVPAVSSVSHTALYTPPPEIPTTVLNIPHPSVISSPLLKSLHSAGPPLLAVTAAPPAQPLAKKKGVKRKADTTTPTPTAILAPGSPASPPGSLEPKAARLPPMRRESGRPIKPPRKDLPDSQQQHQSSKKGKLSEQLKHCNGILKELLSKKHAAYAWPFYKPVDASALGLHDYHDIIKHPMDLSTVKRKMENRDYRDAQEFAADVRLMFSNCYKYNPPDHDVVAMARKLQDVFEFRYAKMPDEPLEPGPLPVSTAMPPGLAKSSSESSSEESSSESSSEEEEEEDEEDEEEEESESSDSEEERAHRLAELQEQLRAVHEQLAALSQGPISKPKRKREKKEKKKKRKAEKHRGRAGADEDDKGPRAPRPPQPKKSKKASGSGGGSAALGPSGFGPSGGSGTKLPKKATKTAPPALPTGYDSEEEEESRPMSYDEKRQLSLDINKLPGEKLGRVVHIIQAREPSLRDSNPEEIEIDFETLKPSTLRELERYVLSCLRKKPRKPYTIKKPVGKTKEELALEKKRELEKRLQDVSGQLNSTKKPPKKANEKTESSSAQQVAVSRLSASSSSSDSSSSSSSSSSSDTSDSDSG
Chain of Chromatin remodeling regulator CECR2 (Homo sapiens) (Q9BXF3 whole entry, looked up, the tested form may be a part): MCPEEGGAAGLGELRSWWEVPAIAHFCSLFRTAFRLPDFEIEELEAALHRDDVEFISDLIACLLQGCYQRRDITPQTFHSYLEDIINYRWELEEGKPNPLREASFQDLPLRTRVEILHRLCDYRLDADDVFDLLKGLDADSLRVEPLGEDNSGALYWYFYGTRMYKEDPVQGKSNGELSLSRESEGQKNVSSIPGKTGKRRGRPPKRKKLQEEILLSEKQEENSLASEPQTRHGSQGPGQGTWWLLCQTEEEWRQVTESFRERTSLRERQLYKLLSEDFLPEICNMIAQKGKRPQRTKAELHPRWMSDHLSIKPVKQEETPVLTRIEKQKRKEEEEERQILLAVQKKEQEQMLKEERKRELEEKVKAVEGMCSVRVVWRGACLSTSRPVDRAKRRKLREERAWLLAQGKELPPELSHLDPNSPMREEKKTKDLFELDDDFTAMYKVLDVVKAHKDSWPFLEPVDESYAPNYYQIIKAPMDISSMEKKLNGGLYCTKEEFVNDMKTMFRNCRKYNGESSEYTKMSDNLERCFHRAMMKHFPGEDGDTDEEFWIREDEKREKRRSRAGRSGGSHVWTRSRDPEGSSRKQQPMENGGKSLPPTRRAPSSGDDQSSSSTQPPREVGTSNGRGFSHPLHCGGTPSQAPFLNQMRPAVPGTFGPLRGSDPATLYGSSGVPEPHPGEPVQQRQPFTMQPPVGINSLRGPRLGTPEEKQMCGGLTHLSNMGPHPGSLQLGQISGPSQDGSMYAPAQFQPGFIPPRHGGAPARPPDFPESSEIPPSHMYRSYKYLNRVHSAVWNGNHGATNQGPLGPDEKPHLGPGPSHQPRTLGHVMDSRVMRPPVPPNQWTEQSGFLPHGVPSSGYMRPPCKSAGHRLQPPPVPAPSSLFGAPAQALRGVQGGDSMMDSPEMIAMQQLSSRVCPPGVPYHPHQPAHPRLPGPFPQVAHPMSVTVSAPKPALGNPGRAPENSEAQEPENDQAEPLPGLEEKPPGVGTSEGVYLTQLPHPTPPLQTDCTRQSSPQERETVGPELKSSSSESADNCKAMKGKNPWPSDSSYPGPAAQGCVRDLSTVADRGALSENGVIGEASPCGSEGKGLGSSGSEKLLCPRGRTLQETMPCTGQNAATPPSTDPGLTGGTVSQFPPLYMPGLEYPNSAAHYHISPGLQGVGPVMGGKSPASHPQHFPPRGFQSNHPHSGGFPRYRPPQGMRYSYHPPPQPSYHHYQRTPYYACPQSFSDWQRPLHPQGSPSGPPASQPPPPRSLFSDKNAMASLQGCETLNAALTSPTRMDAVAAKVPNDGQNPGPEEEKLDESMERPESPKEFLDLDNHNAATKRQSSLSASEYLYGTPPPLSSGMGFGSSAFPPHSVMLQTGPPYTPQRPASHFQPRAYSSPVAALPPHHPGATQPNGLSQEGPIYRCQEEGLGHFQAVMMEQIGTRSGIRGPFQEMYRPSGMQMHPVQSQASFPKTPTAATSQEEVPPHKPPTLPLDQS
Chain of Bromodomain-containing protein 3 (Q15059 whole entry, the tested form may be a part): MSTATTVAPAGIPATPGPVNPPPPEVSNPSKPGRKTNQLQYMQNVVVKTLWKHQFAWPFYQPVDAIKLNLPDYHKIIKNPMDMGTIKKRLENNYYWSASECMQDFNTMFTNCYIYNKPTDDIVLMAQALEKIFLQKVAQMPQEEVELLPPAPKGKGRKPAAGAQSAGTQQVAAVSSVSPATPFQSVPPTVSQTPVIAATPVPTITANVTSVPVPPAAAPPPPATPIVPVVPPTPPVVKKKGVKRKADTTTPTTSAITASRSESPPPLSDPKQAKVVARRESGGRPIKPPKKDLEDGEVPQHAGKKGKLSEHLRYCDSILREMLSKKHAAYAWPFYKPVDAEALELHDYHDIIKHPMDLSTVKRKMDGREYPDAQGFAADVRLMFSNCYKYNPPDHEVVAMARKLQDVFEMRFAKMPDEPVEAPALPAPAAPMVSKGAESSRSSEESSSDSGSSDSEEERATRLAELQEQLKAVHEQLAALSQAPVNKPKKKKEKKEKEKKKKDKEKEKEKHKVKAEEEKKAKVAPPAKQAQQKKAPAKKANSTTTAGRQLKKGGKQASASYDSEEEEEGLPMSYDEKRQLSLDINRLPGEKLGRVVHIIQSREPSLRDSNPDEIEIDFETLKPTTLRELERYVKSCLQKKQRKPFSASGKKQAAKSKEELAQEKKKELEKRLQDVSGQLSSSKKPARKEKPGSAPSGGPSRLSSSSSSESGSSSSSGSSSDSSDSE

CC(=O)N1CCc2c(sc3nc(SCC(=O)Nc4cccnc4C)n(Cc4ccco4)c(=O)c23)C1
7.15: pIC50 [1]
inactive: Activity [6] | Activity [7] | Activity [8] | Activity [9] | Activity [10] | Activity [11] | Activity [12] | Activity [13] | Activity [14] | Activity [15] | Activity [16] | Activity [17] | Activity [18] | Activity [19] | Activity [20] | Activity [21] | Activity [22] | Activity [23] | Activity [24] | Activity [25] | Activity [26] | Activity [27] | Activity [28] | Activity [29] | Activity [30] | Activity [31] | Activity [32] | Activity [33] | Activity [34] | Activity [35] | Activity [36] | Activity [37] | Activity [38] | Activity [39] | Activity [40]
6.82: pKd [2]
54%: Activity [3]
< 5.30: pEC50 [4]
active: Activity [5] Dose-Dependent Effect
